Results on 30 compounds are retold here after patent US9994546B2, “Cyclopropylamines as LSD1 inhibitors” (Incyte Corporation, priority 2014, dated 2018).

The assay has as its target LSD-1 enzyme (Homo sapiens (Human), UniProt O60341). As to the kind of experiment: LANCE LSD1/KDM1A demethylase assay (LSD1 histone demethylase biochemical assay). The note with it: 1 nM LSD-1 enzyme, 1 hour preincubation at 25° C., 0.4 μM biotin-labeled Histone H3 peptide substrate. Here is the method: LANCE LSD1/KDM1A demethylase assay—10 μL of 1 nM LSD-1 enzyme (ENZO BML-SE544-0050) in the assay buffer (50 mM Tris, pH 7.5, 0.01% Tween-20, 25 mM NaCl, 5 mM DTT) were preincubated for 1 hour at 25° C. with 0.8 μL compound/DMSO dotted in black 384 well polystyrene plates. […] After stopping the reactions plates were incubated for 30 minutes and read on a PHERAstar FS plate reader (BMG Labtech).
Consider `N#CCC1(N2CCC(CN[C@@H]3C[C@H]3c3ccccc3)CC2)CN(c2ncccc2C(F)(F)F)C1` (relative stereo) [Example 36, {3-(4-{[(trans-2-Phenylcyclopropyl)amino]methyl}piperidin-1-yl)-1-[3-(trifluoromethyl)pyridin-2-yl]azetidin-3-yl}acetonitrile], for which the half-inhibitory concentration (IC50) is at most 0.1 µM.

In turn, `CN(C)C(=O)CN1CC(CC#N)(N2CCC(N[C@@H]3C[C@H]3c3ccccc3)CC2)C1` [Example 77, 2-(3-(cyanomethyl)-3-(4-(((1R,2S)-2-phenylcyclopropyl)amino)piperidin-1-yl)azetidin-1-yl)-N,N-dimethylacetamide] yielded an IC50 of at most 0.1 µM.

Turning to `CN(C)C(=O)CC1(N2CCC(N[C@@H]3C[C@H]3c3ccccc3)CC2)CN(C2CCOCC2)C1` [Example 121, N,N-dimethyl-2-[3-(4-{[(1R,2S)-2-phenylcyclopropyl]amino}piperidin-1-yl)-1-(tetrahydro-2H-pyran-4-yl)azetidin-3-yl]acetamide], the IC50 is at most 0.1 µM.

Regarding `O=C(O)CC1(N2CCC(N[C@@H]3C[C@H]3c3ccccc3)CC2)CN(Cc2nccs2)C1` [Example 129, [3-(4-{[(1R,2S)-2-phenylcyclopropyl]amino}piperidin-1-yl)-1-(1,3-thiazol-2-ylmethyl)azetidin-3-yl]acetic acid], the IC50 was at most 0.1 µM.

For `CN(C)C(=O)CC1(N2CCC(N[C@@H]3C[C@H]3c3ccccc3)CC2)CN(C(=O)N(C)C)C1` [Example 96, 3-[2-(dimethylamino)-2-oxoethyl]-N,N-dimethyl-3-(4-{[(1R,2S)-2-phenylcyclopropyl]amino}piperidin-1-yl)azetidine-1-carboxamide], the IC50 was at most 0.1 µM.

In turn, `N#CCC1(N2CCC(N[C@@H]3C[C@H]3c3ccccc3)CC2)CN(C(=O)c2cnccn2)C1` [Example 111, [3-(4-{[(1R,2S)-2-phenylcyclopropyl]amino}piperidin-1-yl)-1-(pyrazin-2-ylcarbonyl)azetidin-3-yl]acetonitrile] displayed a 50% inhibitory concentration (IC50) of at most 0.1 µM.

Turning to `N#CCC1(N2CCC(N[C@@H]3C[C@H]3c3ccccc3)CC2)CN([C@H]2CC[C@@H](O)CC2)C1` [Example 73, [1-(cis-4-hydroxycyclohexyl)-3-(4-{[(1R,2S)-2-phenylcyclopropyl]amino}piperidin-1-yl)azetidin-3-yl]acetonitrile], the IC50 was at most 0.1 µM.

In turn, `CNC(=O)CC1(N2CCC(C)(CN[C@@H]3C[C@H]3c3ccccc3)CC2)CCC1` [Example 57, N-methyl-2-{1-[4-methyl-4-({[(1R,2S)-2-phenylcyclopropyl]amino}methyl)piperidin-1-yl]cyclobutyl}acetamide] yielded a half-inhibitory concentration (IC50) of at most 0.1 µM.

Regarding `N#CCC1(N2CCC(NC3CC3c3ccccc3)CC2)CCC1` (racemic) [Example 1, (1-{4-[(trans-2-Phenylcyclopropyl)amino]piperidin-1-yl}cyclobutyl)acetonitrile], the IC50 was at most 0.1 µM.

In the case of `N#CCC1(N2CCC(N[C@@H]3C[C@H]3c3ccccc3)CC2)CN(C(=O)[C@@H]2CCCO2)C1` [Example 116, {3-(4-{[(1R,2S)-2-phenylcyclopropyl]amino}piperidin-1-yl)-1-[(2S)-tetrahydrofuran-2-ylcarbonyl]azetidin-3-yl}acetonitrile], the concentration for half-maximal inhibition (IC50) was at most 0.1 µM.

On to `N#CCC1(N2CCC(N[C@@H]3C[C@H]3c3ccccc3)CC2)CN(C(=O)[C@@H]2CCOC2)C1` [Example 114, {3-(4-{[(1R,2S)-2-phenylcyclopropyl]amino}piperidin-1-yl)-1-[(3R)-tetrahydrofuran-3-ylcarbonyl]azetidin-3-yl}acetonitrile], for which the 50% inhibitory concentration (IC50) is at most 0.1 µM.

Turning to `N#CCC1(N2CCC(N[C@@H]3C[C@H]3c3ccccc3)CC2)CN(C(=O)c2ccn[nH]2)C1` [Example 113, [3-(4-{[(1R,2S)-2-phenylcyclopropyl]amino}piperidin-1-yl)-1-(1H-pyrazol-5-ylcarbonyl)azetidin-3-yl]acetonitrile], the IC50 is at most 0.1 µM.

Compound `CN(C)C(=O)CC1(N2CCC(N[C@@H]3C[C@H]3c3ccccc3)CC2)CCC1` [Example 68, N,N-dimethyl-2-[1-(4-{[(1R,2S)-2-phenylcyclopropyl]amino}piperidin-1-yl)cyclobutyl]acetamide] returned an IC50 of at most 0.1 µM.

Regarding `COC(=O)N1CC(CC#N)(N2CCC(N[C@@H]3C[C@H]3c3ccccc3)CC2)C1` (relative stereo) [Example 8, Methyl 3-(cyanomethyl)-3-{4-[(trans-2-phenylcyclopropyl)amino]piperidin-1-yl}azetidine-1-carboxylate], the half-maximal inhibitory concentration (IC50) is at most 0.1 µM.

In the case of `N#CCC1(N2CCC(N[C@@H]3C[C@H]3c3ccccc3)CC2)CN(Cc2ccccc2)C1` (relative stereo) [Example 4, (1-Benzyl-3-{4-[(trans-2-phenylcyclopropyl)amino]piperidin-1-yl}azetidin-3-yl)acetonitrile], the IC50 was at most 0.1 µM.

Consider `N#CCC1(N2CCC(CN[C@@H]3C[C@H]3c3ccccc3)CC2)CN(C(=O)c2cccc(F)c2)C1` (relative stereo) [Example 47, [1-(3-Fluorobenzoyl)-3-(4-{[(trans-2-phenylcyclopropyl)amino]methyl}piperidin-1-yl)azetidin-3-yl]acetonitrile], for which the 50% inhibitory concentration (IC50) is at most 0.1 µM.

For the compound `N#CCC1(N2CC(CN[C@@H]3C[C@H]3c3ccccc3)C2)CCN(C(=O)Nc2ccc(F)cc2)CC1` (relative stereo) [Example 25, 4-(Cyanomethyl)-N-(4-fluorophenyl)-4-(3-{[(trans-2-phenylcyclopropyl)amino]methyl}azetidin-1-yl)piperidine-1-carboxamide], the IC50 was at most 0.1 µM.

In turn, `Cn1cc(S(=O)(=O)N2CC(CC#N)(N3CCC(N[C@@H]4C[C@H]4c4ccccc4)CC3)C2)cn1` [Example 100, [1-[(1-methyl-1H-pyrazol-4-yl)sulfonyl]-3-(4-{[(1R,2S)-2-phenylcyclopropyl]amino}piperidin-1-yl)azetidin-3-yl]acetonitrile] showed an IC50 of at most 0.1 µM.

Compound `CS(=O)(=O)N1CC(CC#N)(N2CCC(N[C@@H]3C[C@H]3c3ccccc3)CC2)C1` [Example 58, [1-(methylsulfonyl)-3-(4-{[(1R,2S)-2-phenylcyclopropyl]amino}piperidin-1-yl)azetidin-3-yl]acetonitrile] returned an IC50 of at most 0.1 µM.

In turn, `CN1CC(CC#N)(N2CCC(N[C@@H]3C[C@H]3c3ccccc3)CC2)C1` [Example 59, [1-methyl-3-(4-{[(1R,2S)-2-phenylcyclopropyl]amino}piperidin-1-yl)azetidin-3-yl]acetonitrile] showed an IC50 of at most 0.1 µM.

The compound `N#CCC1(N2CC(CN[C@@H]3C[C@H]3c3ccccc3)C2)CCN(C(=O)c2ccc(F)cc2)CC1` (relative stereo) [Example 19, [1-(4-Fluorobenzoyl)-4-(3-{[(trans-2-phenylcyclopropyl)amino]methyl}azetidin-1-yl)piperidin-4-yl]acetonitrile] had an IC50 of at most 0.1 µM.

As for `O=C(O)CC1(N2CCC(N[C@@H]3C[C@H]3c3ccccc3)CC2)CN(Cc2cscn2)C1` [Example 127, [3-(4-{[(1R,2S)-2-phenylcyclopropyl]amino}piperidin-1-yl)-1-(1,3-thiazol-4-ylmethyl)azetidin-3-yl]acetic acid], the half-maximal inhibitory concentration (IC50) is at most 0.1 µM.

Regarding `N#CCC1(N2CCC(N[C@@H]3C[C@H]3c3ccccc3)CC2)CN(CCC(=O)O)C1` (relative stereo) [Example 5, 3-(3-(Cyanomethyl)-3-{4-[(trans-2-phenylcyclopropyl)amino]piperidin-1-yl}azetidin-1-yl)propanoic acid], the concentration for half-maximal inhibition (IC50) was at most 0.1 µM.

As to `CN(C)C(=O)CC1(N2CCC(CN[C@@H]3C[C@H]3c3ccccc3)CC2)CNC1` (relative stereo) [Example 52, N,N-Dimethyl-2-(3-(4-((trans-2-phenylcyclopropylamino)methyl)piperidin-1-yl)azetidin-3-yl)acetamide], the IC50 was at most 0.1 µM.

As for `CC(C)NC(=O)c1cc(F)c(N2CC(CC#N)(N3CCC(CN[C@@H]4C[C@H]4c4ccccc4)CC3)C2)cc1F` (relative stereo) [Example 35, 4-[3-(Cyanomethyl)-3-(4-{[(trans-2-phenylcyclopropyl)amino]methyl}piperidin-1-yl)azetidin-1-yl]-2,5-difluoro-N-isopropylbenzamide], the concentration for half-maximal inhibition (IC50) was at most 0.1 µM.

Turning to `CC(=O)N1CC(CC#N)(N2CCC(N[C@@H]3C[C@H]3c3ccccc3)CC2)C1` (relative stereo) [Example 6, (1-Acetyl-3-{4-[(trans-2-phenylcyclopropyl)amino]piperidin-1-yl}azetidin-3-yl)acetonitrile], the concentration for half-maximal inhibition (IC50) was at most 0.1 µM.

With `Cn1nccc1C(=O)N1CC(CC#N)(N2CCC(N[C@@H]3C[C@H]3c3ccccc3)CC2)C1` [Example 81, [1-[(1-methyl-1H-pyrazol-5-yl)carbonyl]-3-(4-{[(1R,2S)-2-phenylcyclopropyl]amino}piperidin-1-yl)azetidin-3-yl]acetonitrile], the IC50 was at most 0.1 µM.

Take `c1ccc([C@@H]2C[C@H]2NCC2CN(C3CCN(c4ccccc4)CC3)C2)cc1` (relative stereo) [Example 29, Trans-2-phenyl-N-{[1-(1-phenylpiperidin-4-yl)azetidin-3-yl]methyl}cyclopropanamine]: the concentration for half-maximal inhibition (IC50) is at most 0.1 µM.

As to `N#CCC1(N2CCC(CN[C@@H]3C[C@H]3c3ccccc3)CC2)CN(C(=O)c2ccccc2F)C1` (relative stereo) [Example 46, [1-(2-Fluorobenzoyl)-3-(4-{[(trans-2-phenylcyclopropyl)amino]methyl}piperidin-1-yl)azetidin-3-yl]acetonitrile], the half-maximal inhibitory concentration (IC50) is at most 0.1 µM.

As to `N#CCC1(N2CCC(N[C@@H]3C[C@H]3c3ccccc3)CC2)CN(CC(N)=O)C1` [Example 79, 2-[3-(cyanomethyl)-3-(4-{[(1R,2S)-2-phenylcyclopropyl]amino}piperidin-1-yl)azetidin-1-yl]acetamide], the IC50 is at most 0.1 µM.
